Reference: US12729377B2, “RNAi agents and compositions for inhibiting expression of angiopoietin-like 3 (ANGPTL3), and methods of use” (Arrowhead Pharmaceuticals, Inc., priority 2017, dated 2026)
In the oligonucleotide strings, read from the 5' end, every base follows the letter of its sugar. An asterisk marks phosphorothioate; unmarked linkages are phosphodiester. Other units and linkages are bracketed, terminal groups are in braces. A string of capitals states the bases alone. {NAG37} = tridentate N-acetyl-galactosamine targeting ligand, structure (NAG37)s; [invAb] = inverted abasic unit; m = 2'-O-methyl; f = 2'-fluoro

Assays:
ANGPTL3 protein [1] = assay: Example 7: serum ANGPTL3 protein by ELISA in mice; type: in vivo, C57bl/6 mice; design: key: ratio: (level/pre-treatment day -1 level) ÷ mean of D5W control group
Description: (§1) To further assess the in vivo activity of additional ANGPTL3 RNAi agents that are designed to target position 304 on the ANGPTL3 gene, six- to eight-week-old female C57bl/6 mice were used. Pre-dose serum samples were taken at day −1 after a four hour fast. At day 1, each mouse was given a single subcutaneous administration of 200 μl containing 0.5 mg/kg (mpk) of an ANGPTL3 RNAi agent in D5W (dextrose in 5% water), or control (D5W) with no RNAi agent, according to the dosing groups recited in Table 31.
(§2) Each of the RNAi agents included a modified sequence and an N-acetyl-galactosamine-containing targeting ligand conjugated to the 5′ terminal end of the sense strand. (See Tables 3, 4, and 5 for modified sequences and targeting ligand structures). The injections were performed between the skin and muscle (i.e. subcutaneous injections) into the loose skin over the neck and shoulder area. Three (3) mice in each group were tested (n=3). Serum was collected on days 8, 15, 22, and 29. Mice were fasted for four hours prior to each collection. ANGPTL3 protein levels in serum were measured by ELISA assay (R&D Systems), according to the manufacturer's recommendations. Triglycerides, total cholesterol, high-density lipoprotein (HDL), and low-density lipoprotein (LDL) in serum were measured on a Cobas® Integra 400 (Roche Diagnostics), according to the manufacturer's recommendations.
(§3) The ANGPTL3 protein levels, triglyceride levels, total cholesterol levels, HDL levels, and LDL levels for each animal were normalized. For normalization, the level of ANGPTL3 protein, triglyceride, HDL, and total cholesterol, respectively, for each animal at a time point, was divided by the pre-treatment level of expression in that animal (in this case at day −1) to determine the ratio of expression “normalized to pre-treatment.” Expression at a specific time point was then normalized to the D5W control group by dividing the “normalized to pre-treatment” ratio for an individual animal by the mean “normalized to pretreatment” ratio of all mice in the D5W control group.

ANGPTL3 gene [2] = assay: Example 4: serum total cholesterol in mice; type: in vivo, C57bl/6 mice
Description: as §1, with “To” for “To further”, “of” for “of additional”, “additional positions” for “position 304”, “containing either 1 mg/kg (mpk) or” for “containing”, “17.” for “31.”
as §2, with “22, 29,” for “22,”, “day 43 (Groups 1-3, 9, and 11-13 only).” for “29.”, “Triglycerides,” for “Triglycerides, total cholesterol,”, “total cholesterol” for “low-density lipoprotein (LDL)”
(§4) The ANGPTL3 protein levels, triglyceride levels, HDL levels, and total cholesterol levels for each animal were normalized. For normalization, the level of ANGPTL3 protein, triglyceride, HDL, and total cholesterol, respectively, for each animal at a time point, was divided by the pre-treatment level of expression in that animal (in this case at day −1) to determine the ratio of expression “normalized to pre-treatment.” Expression at a specific time point was then normalized to the D5W control group by dividing the “normalized to pre-treatment” ratio for an individual animal by the mean “normalized to pretreatment” ratio of all mice in the D5W control group.

ANGPTL3 protein [3] = assay: Example 4: serum ANGPTL3 protein by ELISA in mice; type: in vivo, C57bl/6 mice; settings: for Avg ANGPTL3 (Average ANGPTL3 Protein Normalized to Pre-Treatment and Control): 1.0 mg/kg single subcutaneous dose on day 1, serum, female C57bl/6 mice
Description: as §1, with “To” for “To further”, “of” for “of additional”, “additional positions” for “position 304”, “containing either 1 mg/kg (mpk) or” for “containing”, “17.” for “31.”
as §2, with “22, 29,” for “22,”, “day 43 (Groups 1-3, 9, and 11-13 only).” for “29.”, “Triglycerides,” for “Triglycerides, total cholesterol,”, “total cholesterol” for “low-density lipoprotein (LDL)”
as §4

ANGPTL3 gene [4] = assay: Example 3: serum triglycerides in mice; type: in vivo
Description: as §1, with “To” for “To further”, “of” for “of additional”, “positions 921 and 922” for “position 304”, “either 1” for “0.5”, “12.” for “31.”
as §2, with “Serum was collected on days 8, 15, 22, and 29.” left out, “Triglycerides,” for “Triglycerides, total cholesterol,”, “total cholesterol” for “low-density lipoprotein (LDL)”
as §4

ANGPTL3 gene [5] = assay: Example 7: serum LDL in mice; type: in vivo; design: key: ratio: (level/pre-treatment day -1 level) ÷ mean of D5W control group; settings: 0.5 mg/kg single SC injection day 1, female C57bl/6 mice, n=3, ratio to D5W control
Description: as §1, §2, §3

[6] = Day 8, 0.5 mg/kg single SC injection on day 1, n=3
[7] = Day 15, 0.5 mg/kg single SC injection on day 1, n=3
[8] = Day 22, 0.5 mg/kg single SC injection on day 1, n=3
[9] = Day 29, 0.5 mg/kg single SC injection on day 1, n=3
[10] = Day 8, 1.0 mg/kg single SC injection on day 1, n=3
[11] = Day 15, 1.0 mg/kg single SC injection on day 1, n=3
[12] = Day 22, 1.0 mg/kg single SC injection on day 1, n=3
[13] = Day 29, 1.0 mg/kg single SC injection on day 1, n=3
[14] = Day 43, 1.0 mg/kg single SC injection on day 1, n=3
[15] = Day 8, 1.0 mg/kg single subcutaneous dose on day 1, female C57bl/6 mice
[16] = Day 15, 1.0 mg/kg single subcutaneous dose on day 1, female C57bl/6 mice
[17] = Day 22, 1.0 mg/kg single subcutaneous dose on day 1, female C57bl/6 mice
[18] = Day 29, 1.0 mg/kg single subcutaneous dose on day 1, female C57bl/6 mice

| Substance | Avg ANGPTL3, normalized to pre-treatment and control (ANGPTL3 protein [1]; [6]) | Avg ANGPTL3, normalized to pre-treatment and control (ANGPTL3 protein [1]; [7]) | Avg ANGPTL3, normalized to pre-treatment and control (ANGPTL3 protein [1]; [8]) | Avg ANGPTL3, normalized to pre-treatment and control (ANGPTL3 protein [1]; [9]) | Avg Total Chol, normalized to pre-treatment and control (ANGPTL3 gene [2]; [10]) | Avg Total Chol, normalized to pre-treatment and control (ANGPTL3 gene [2]; [11]) | Avg Total Chol, normalized to pre-treatment and control (ANGPTL3 gene [2]; [12]) | Avg Total Chol, normalized to pre-treatment and control (ANGPTL3 gene [2]; [13]) | Avg Total Chol, normalized to pre-treatment and control (ANGPTL3 gene [2]; [14]) | Avg ANGPTL3 (Average ANGPTL3 Protein Normalized to Pre-Treatment and Control) (ANGPTL3 protein [3]; Day 8) | Avg ANGPTL3 (Average ANGPTL3 Protein Normalized to Pre-Treatment and Control) (ANGPTL3 protein [3]; Day 15) | Avg ANGPTL3 (Average ANGPTL3 Protein Normalized to Pre-Treatment and Control) (ANGPTL3 protein [3]; Day 22) | Avg ANGPTL3 (Average ANGPTL3 Protein Normalized to Pre-Treatment and Control) (ANGPTL3 protein [3]; Day 29) | Avg ANGPTL3 (Average ANGPTL3 Protein Normalized to Pre-Treatment and Control) (ANGPTL3 protein [3]; Day 43) | Avg TG (Average Triglycerides Normalized to Pre-Treatment and Control) (ANGPTL3 gene [4]; [15]) | Avg TG (Average Triglycerides Normalized to Pre-Treatment and Control) (ANGPTL3 gene [4]; [16]) | Avg TG (Average Triglycerides Normalized to Pre-Treatment and Control) (ANGPTL3 gene [4]; [17]) | Avg TG (Average Triglycerides Normalized to Pre-Treatment and Control) (ANGPTL3 gene [4]; [18]) | Avg LDL, normalized to pre-treatment and control (ANGPTL3 gene [5]; Day 8) | Avg LDL, normalized to pre-treatment and control (ANGPTL3 gene [5]; Day 15) | other results |
| --- | --- | --- | --- | --- | --- | --- | --- | --- | --- | --- | --- | --- | --- | --- | --- | --- | --- | --- | --- | --- | --- |
| AD05418: RNAi agent duplex: antisense AM07159-AS, sense AM07158-SS (antisense mU*fU*mU*fGmAfAmUfUmAfAmUfGmUfCmCfAmUfGmGfG*mU; sense {NAG37}*[invAb]*mAmCmCmCmAmUmGmGfAfCfAmUmUmAmAmUmUmCmAmAmA*[invAb]) | 0.534 | 0.565 | 0.639 | 0.758 | 0.818 | 0.761 | 0.915 | 0.853 | 1.002 | 0.258 | 0.270 | 0.387 | 0.407 | 0.847 | 0.718 | 0.791 | 0.855 | 0.881 | 1.160 | 0.928 | Avg LDL, normalized to pre-treatment and control (ANGPTL3 gene [5]; Day 22): 0.950; Avg LDL, normalized to pre-treatment and control (ANGPTL3 gene [5]; Day 29): 1.131 |
| AD05307: RNAi agent duplex: antisense AM07001-AS, sense AM07000-SS (chain 1 mU*fU*mU*fGmAfAmUfUmAfAmUfGmUfCmCfAmUfGmGmG*mC; chain 2 {NAG37}*[invAb]*mGmCmCmCmAmUmGmGfAfCfAmUmUmAmAmUmUmCmAmAmA*[invAb]) |  |  |  |  |  |  |  |  |  |  |  |  |  |  | 0.786 | 0.692 | 0.903 | 0.852 |  |  |  |
| AD05488: RNAi agent duplex: antisense AM07235-AS, sense AM07234-SS (antisense mU*fA*mC*fUmGfAmUfCmAfAmAfUmAfUmGfUmUfGmAfG*mC; sense {NAG37}*[invAb]*mGmCmUmCmAmAmCmAfUfAfUmUmUmGmAmUmCmAmGmUmA*[invAb]) | 0.339 | 0.379 | 0.346 | 0.469 | 0.827 | 0.667 | 0.759 | 0.683 | 0.837 | 0.090 | 0.070 | 0.092 | 0.124 | 0.254 |  |  |  |  | 0.953 | 0.825 | ANGPTL3 protein normalized to pre-treatment and control (ANGPTL3 protein [3]; day 15, single 1 mg/kg subcutaneous, C57bl/6 mice): 0.070; ANGPTL3 protein normalized to pre-treatment and control (ANGPTL3 protein [3]; day 22, single 1 mg/kg subcutaneous, C57bl/6 mice): 0.092; knockdown of ANGPTL3 protein (ANGPTL3 protein [3]; days 15 and 22, single 1 mg/kg subcutaneous, C57bl/6 mice): greater than 90%; Avg LDL, normalized to pre-treatment and control (ANGPTL3 gene [5]; Day 22): 0.860; Avg LDL, normalized to pre-treatment and control (ANGPTL3 gene [5]; Day 29): 1.055 |
